Assay results taken from patent US9533987B2, “Heterocyclic derivates” (KALVISTA PHARMACEUTICALS LIMITED, priority 2013, dated 2017).

Key:
Human KLK1 = Human KLK1 (Homo sapiens (Human), UniProt P06870); assay: Determination of the IC50 for KLK1 (fluorogenic substrate H-DVal-Leu-Arg-AFC); assay type: biochemical; conditions: 37° C.
Method: Determination of the IC50 for KLK1
(§1) Human KLK1 (Callbiochem) was incubated at 37° C. with the fluorogenic substrate H-DVal-Leu-Arg-AFC and various concentrations of the test compound. Residual enzyme activity (initial rate of reaction) was determined by measuring the change in […] at 410 nm and the IC50 value for the test compound was determined.

Human plasma kallikrein = Human plasma kallikrein (Homo sapiens (Human), UniProt P03952); assay: Determination of the IC50 for plasma kallikrein (fluorogenic substrate H-DPro-Phe-Arg-AFC); assay type: biochemical; conditions: 37° C., read-out: IC50 (human PKaI)
Chain of Human plasma kallikrein (P03952 391-638): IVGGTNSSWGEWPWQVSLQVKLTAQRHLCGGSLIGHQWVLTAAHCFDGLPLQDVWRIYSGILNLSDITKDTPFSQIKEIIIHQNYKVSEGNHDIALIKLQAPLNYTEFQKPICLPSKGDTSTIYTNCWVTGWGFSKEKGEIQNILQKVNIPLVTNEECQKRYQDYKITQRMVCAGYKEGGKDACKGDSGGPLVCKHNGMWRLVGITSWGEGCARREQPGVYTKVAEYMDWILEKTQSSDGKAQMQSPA
Chain of Human plasma kallikrein (P03952 20-390 partner): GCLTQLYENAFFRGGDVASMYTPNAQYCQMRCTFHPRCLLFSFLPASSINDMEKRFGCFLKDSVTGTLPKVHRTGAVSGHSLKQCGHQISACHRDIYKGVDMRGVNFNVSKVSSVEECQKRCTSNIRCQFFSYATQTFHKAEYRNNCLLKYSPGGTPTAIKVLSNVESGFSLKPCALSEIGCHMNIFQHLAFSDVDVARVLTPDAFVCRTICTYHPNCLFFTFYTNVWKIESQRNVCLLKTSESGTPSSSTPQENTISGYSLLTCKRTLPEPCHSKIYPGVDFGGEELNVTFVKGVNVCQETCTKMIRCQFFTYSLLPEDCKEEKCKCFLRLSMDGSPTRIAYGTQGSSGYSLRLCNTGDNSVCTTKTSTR
Method: Determination of the IC50 for Plasma Kallikrein
as §1, with “plasma kallikrein (Protogen)” for “KLK1 (Callbiochem)”, “H-DPro-Phe-Arg-AFC” for “H-DVal-Leu-Arg-AFC”

Chain of Human KLK1 (P06870 25-262): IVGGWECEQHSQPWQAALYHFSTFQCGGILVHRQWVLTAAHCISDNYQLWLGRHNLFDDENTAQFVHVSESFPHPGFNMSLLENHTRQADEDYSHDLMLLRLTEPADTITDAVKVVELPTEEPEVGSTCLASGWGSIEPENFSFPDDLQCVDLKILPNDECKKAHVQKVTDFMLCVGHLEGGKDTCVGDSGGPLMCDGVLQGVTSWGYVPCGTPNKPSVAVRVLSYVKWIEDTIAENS

| Structure (SMILES) | IC50 (Human KLK1) [nM] | IC50 (Human plasma kallikrein) [nM] |
| --- | --- | --- |
| CCOc1cc(Cn2cc(C(=O)NCc3ccc4c(N)nccc4c3)c(C(F)(F)F)n2)cnc1Cl [Example 74, 1-(6-Chloro-5-ethoxy-pyridin-3-ylmethyl)-3-trifluoromethyl-1H-pyrazole-4-carboxylic acid (1-amino-isoquinolin-6-ylmethyl)-amide] | 2770 | 425 |
| N#Cc1cnn(Cc2ccc(Cn3cc(C(=O)NCc4ccc5c(N)nccc5c4)c(C(F)(F)F)n3)cc2)c1 [Example 77, 1-[4-(4-Cyano-pyrazol-1-ylmethyl)-benzyl]-3-trifluoromethyl-1H-pyrazole-4-carboxylic acid (1-amino-isoquinolin-6-ylmethyl)-amide] | > 10000 | 85.4 |
| NC(=O)c1cnn(Cc2ccc(Cn3cc(C(=O)NCc4ccc5c(N)nccc5c4)c(C(F)(F)F)n3)cc2)c1 [Example 78, 1-[4-(4-Carbamoyl-pyrazol-1-ylmethyl)-benzyl]-3-trifluoromethyl-1H-pyrazole-4-carboxylic acid (1-amino-isoquinolin-6-ylmethyl)-amide] | > 10000 | 91.1 |
| CCOc1cc(Cn2cc(C(=O)NCc3ccc4c(N)nccc4c3)c(C(F)(F)F)n2)ccn1 [Example 80, 1-(2-Ethoxy-pyridin-4-ylmethyl)-3-trifluoromethyl-1H-pyrazole-4-carboxylic acid (1-amino-isoquinolin-6-ylmethyl)-amide] | 9280 | 206 |
| Nc1nccc2cc(CNC(=O)c3cn(Cc4csc(Cn5cccn5)n4)nc3C(F)(F)F)ccc12 [Example 81, 1-(2-Pyrazol-1-ylmethyl-thiazol-4-ylmethyl)-3-trifluoromethyl-1H-pyrazole-4-carboxylic acid (1-amino-isoquinolin-6-ylmethyl)-amide] | 8970 | 26.5 |
| COCCN(C)c1ccc(Cn2cc(C(=O)NCc3ccc4c(N)nccc4c3)c(C3CC3)n2)cn1 [Example 86, 3-Cyclopropyl-1-{6-[(2-methoxy-ethyl)-methyl-amino]-pyridin-3-ylmethyl}-1H-pyrazole-4-carboxylic acid (1-amino-isoquinolin-6-ylmethyl)-amide] | 8790 | 56.1 |
| Nc1nccc2cc(CNC(=O)c3cn(Cc4ccc(N5CCC(F)(F)C5)nc4)nc3C3CC3)ccc12 [Example 87, 3-Cyclopropyl-1-[6-(3,3-difluoro-pyrrolidin-1-yl)-pyridin-3-ylmethyl]-1H-pyrazole-4-carboxylic acid (1-amino-isoquinolin-6-ylmethyl)-amide] | 6460 | 23.2 |
| COc1cc(N2CCCC2)ncc1Cn1cc(C(=O)NCc2ccc3c(N)nccc3c2)c(C2CC2)n1 [Example 89, 3-Cyclopropyl-1-(4-methoxy-6-pyrrolidin-1-yl-pyridin-3-ylmethyl)-1H-pyrazole-4-carboxylic acid (1-amino-isoquinolin-6-ylmethyl)-amide] | 960 | 17.8 |
| Nc1nccc2cc(CNC(=O)c3cn(Cc4ccc(Cn5ccnn5)cc4)nc3C3CC3)ccc12 [Example 91, 3-Cyclopropyl-1-(4-[1,2,3]triazol-1-ylmethyl-benzyl)-1H-pyrazole-4-carboxylic acid (1-amino-isoquinolin-6-ylmethyl)-amide] | > 10000 | 13.8 |
| CCN(CC)c1ncc(Cn2cc(C(=O)NCc3ccc4c(N)nccc4c3)c(C3CC3)n2)cc1F [Example 95, 3-Cyclopropyl-1-(6-diethylamino-5-fluoro-pyridin-3-ylmethyl)-1H-pyrazole-4-carboxylic acid (1-amino-isoquinolin-6-ylmethyl)-amide] | 9640 | 34 |
| CCOc1ccc(Cn2cc(C(=O)NCc3ccc4c(N)nccc4c3)c(N)n2)cn1 [Example 98, 3-Amino-1-(6-ethoxy-pyridin-3-ylmethyl)-1H-pyrazole-4-carboxylic acid (1-amino-isoquinolin-6-ylmethyl)-amide] | 3140 | 62.4 |
| Nc1nn(Cc2ccc(N3CCCC3)nc2)cc1C(=O)NCc1ccc2c(N)nccc2c1 [Example 99, 3-Amino-1-(6-pyrrolidin-1-yl-pyridin-3-ylmethyl)-1H-pyrazole-4-carboxylic acid (1-amino-isoquinolin-6-ylmethyl)-amide] | 3460 | 4.15 |

The next lines start with the values.

| IC50 (Human KLK1) [nM] | IC50 (Human plasma kallikrein) [nM] | Structure (SMILES) |
| --- | --- | --- |
| 1300 | 98.3 | CCOc1ncc(Cn2cc(C(=O)NCc3ccc4c(N)nccc4c3)c(C(F)(F)F)n2)cc1F [Example 75, 1-(6-Ethoxy-5-fluoro-pyridin-3-ylmethyl)-3-trifluoromethyl-1H-pyrazole-4-carboxylic acid (1-amino-isoquinolin-6-ylmethyl)-amide] |
| > 1000 | 0.92 | Nc1nccc2cc(CNC(=O)c3cn(Cc4ccc(Cn5cccn5)cc4)nc3C(F)(F)F)ccc12 [Example 76, 1-(4-Pyrazol-1-ylmethyl-benzyl)-3-trifluoromethyl-1H-pyrazole-4-carboxylic acid (1-amino-isoquinolin-6-ylmethyl)-amide] |
| > 10000 | 2.29 | Nc1nccc2cc(CNC(=O)c3cn(Cc4ccc(Cn5cccn5)nc4)nc3C(F)(F)F)ccc12 [Example 79, 1-(6-Pyrazol-1-ylmethyl-pyridin-3-ylmethyl)-3-trifluoromethyl-1H-pyrazole-4-carboxylic acid (1-amino-isoquinolin-6-ylmethyl)-amide] |
| 4710 | 21.2 | Cc1cnn(Cc2nc(Cn3cc(C(=O)NCc4ccc5c(N)nccc5c4)c(C(F)(F)F)n3)cs2)c1 [Example 82, 1-[2-(4-Methyl-pyrazol-1-ylmethyl)-thiazol-4-ylmethyl]-3-trifluoromethyl-1H-pyrazole-4-carboxylic acid (1-amino-isoquinolin-6-ylmethyl)-amide] |
| 9630 | 112 | COc1cc(Cn2cc(C(=O)NCc3ccc4c(N)nccc4c3)c(C3CC3)n2)cc(N2CCCC2)n1 [Example 88, 3-Cyclopropyl-1-(2-methoxy-6-pyrrolidin-1-yl-pyridin-4-ylmethyl)-1H-pyrazole-4-carboxylic acid (1-amino-isoquinolin-6-ylmethyl)-amide] |
| 4700 | 11.6 | Nc1nccc2cc(CNC(=O)c3cn(Cc4ccc(N5CCCC5)nc4)nc3C3CC3)ccc12 [Example 90, 3-Cyclopropyl-1-(6-pyrrolidin-1-yl-pyridin-3-ylmethyl)-1H-pyrazole-4-carboxylic acid (1-amino-isoquinolin-6-ylmethyl)-amide] |
| > 10000 | 109 | Nc1nccc2cc(CNC(=O)c3cn(Cc4ccc(OCC(F)(F)F)nc4)nc3C3CC3)ccc12 [Example 92, 3-Cyclopropyl-1-[6-(2,2,2-trifluoro-ethoxy)-pyridin-3-ylmethyl]-1H-pyrazole-4-carboxylic acid (1-amino-isoquinolin-6-ylmethyl)-amide] |
| > 10000 | 75.1 | Nc1nccc2cc(CNC(=O)c3cn(Cc4ccc(Oc5ccccc5)nc4)nc3C3CC3)ccc12 [Example 93, 3-Cyclopropyl-1-(6-phenoxy-pyridin-3-ylmethyl)-1H-pyrazole-4-carboxylic acid (1-amino-isoquinolin-6-ylmethyl)-amide] |
| 2000 | 53.2 | CCOc1ncc(Cn2cc(C(=O)NCc3ccc4c(N)nccc4c3)c(C3CC3)n2)cc1Cl [Example 94, 1-(5-Chloro-6-ethoxy-pyridin-3-ylmethyl)-3-cyclopropyl-1H-pyrazole-4-carboxylic acid (1-amino-isoquinolin-6-ylmethyl)-amide] |
| 3010 | 18.5 | Nc1nccc2cc(CNC(=O)c3cn(Cc4cnc(N5CCCC5)c(Cl)c4)nc3C3CC3)ccc12 [Example 97, 1-(5-Chloro-6-pyrrolidin-1-yl-pyridin-3-ylmethyl)-3-cyclopropyl-1H-pyrazole-4-carboxylic acid (1-amino-isoquinolin-6-ylmethyl)-amide] |
| 5950 | 13.3 | Nc1nn(Cc2ccc(Cn3ccccc3=O)cc2)cc1C(=O)NCc1cccc2[nH]ncc12 [Example 113, 3-Amino-1-[4-(2-oxo-2H-pyridin-1-ylmethyl)-benzyl]-1H-pyrazole-4-carboxylic acid (1H-indazol-4-ylmethyl)-amide] |
| 1210 | 304 | O=C(NCc1cnc2[nH]ccc2c1)c1cn(Cc2ccc(N3CCCC3)nc2)nc1C(F)(F)F [Example 114, 1-(6-Pyrrolidin-1-yl-pyridin-3-ylmethyl)-3-trifluoromethyl-1H-pyrazole-4-carboxylic acid (1H-pyrrolo[2,3-b]pyridin-5-ylmethyl)-amide] |
| > 10000 | 62 | Cc1cnn(Cc2ccc(Cn3cc(C(=O)NCc4cnc5[nH]ccc5c4)c(C(F)(F)F)n3)cc2)c1 [Example 121, 1-[4-(4-Methyl-pyrazol-1-ylmethyl)-benzyl]-3-trifluoromethyl-1H-pyrazole-4-carboxylic acid (1H-pyrrolo[2,3-b]pyridin-5-ylmethyl)-amide] |
| > 10000 | 101 | Cc1cnn(Cc2ccc(Cn3cc(C(=O)NCc4c(C)nc5[nH]ccc5c4C)c(C4CC4)n3)cc2)c1 [Example 122, 3-Cyclopropyl-1-[4-(4-methyl-pyrazol-1-ylmethyl)-benzyl]-1H-pyrazole-4-carboxylic acid (4,6-dimethyl-1H-pyrrolo[2,3-b]pyridin-5-ylmethyl)-amide] |
| > 10000 | 4010 | Cc1cnn(Cc2ccc(Cn3cc(C(=O)NCc4ccnc5[nH]ccc45)c(C(F)(F)F)n3)cc2)c1 [Example 125, 1-[4-(4-Methyl-pyrazol-1-ylmethyl)-benzyl]-3-trifluoromethyl-1H-pyrazole-4-carboxylic acid (1H-pyrrolo[2,3-b]pyridin-4-ylmethyl)-amide] |
